{"source": "patent US20230134859A1", "about": "“METHOD FOR SCREENING FOR, METHOD FOR PRODUCING, AND METHOD FOR DESIGNING DRUG ACTIVE INGREDIENTS” (SKY PHARMA CO., LTD., priority 2020, published 2023)", "tested_on": "cardiomyocytes", "assay": "Test Example 8: enhancement of myocardium in zebrafish embryo (nkx2.5 in situ hybridization, blood cells pumped per heartbeat)", "format": "in vivo", "settings": "test compounds = Compounds 1 to 7", "experimental": "Zebrafish embryos at 10 hours after fertilization were held with the dorsal side of the head up on a coffin (plastic plate with V-shaped grooves for holding), and a glass capillary was inserted into a midline between head and ear vesicles (heart primordium). Nitrogen gas pressure (15 picosiemens) was applied for 15 to 45 milliseconds and injected into the gap just below the neural tube. The test compound concentration was 100 μM/E3, and 0.025% (final concentration) phenol red was mixed as a tracer of the injection solution. The injection was performed in pulses with a foot pedal and continued until phenol red was distributed in an elliptical shape with a major axis of 200 μm from the insertion point. After injection, embryos were cultured at 28.5° C. for 14 hours in E3. After chorions were removed with tweezers, the embryos were fixed with 4% paraformaldehyde/PBS at normal temperature for 1 hour, and in situ hybridization was performed overnight at 65° C. in the presence of a DIG probe of nk×2.5 as a cardiac muscle marker according to a conventional method. After washing, cardiomyocytes were stained by an alkali phosphatase color reaction using an anti-DIG antibody. The stained embryos were washed with PBS, embedded in 75% glycerin/PBS and localized, and then microscopically photographed with incident light. The number of tested individuals was unified with n=80 for each compound.\nIn addition, the zebrafish embryos injected with the test compound by the above-described method were cultured at 28.5° C. until 48 hours after fertilization, embedded in 3% methyl cellulose/E3, and a moving image was photographed. The number of blood cells pumped in one heartbeat in time-lapse was counted n=15 and compared to Ringer injected individuals."}
{"smiles": "CNS(=O)(=O)c1ccccc1Nc1nc(Nc2ccc(N3CCN(C)CC3)cc2OC)ncc1Cl", "note": "[Compound 7, 2-[[5-Chloro-2-[2-methoxy-4-(4-methylpiperazin-1-yl)anilino]pyrimidin-4-yl]amino]-N-methylbenzenesulfonamide]", "values": [{"measurement": "amount of cardiomyocytes (in situ hybridization, nkx2.5)", "setting": "100 μM injected at heart primordium 10 h after fertilization, vs control, n=80", "result": "increase in the amount of cardiomyocytes was observed"}, {"measurement": "stroke volume of blood cells (moving image of the heartbeat)", "setting": "100 μM, 48 h after fertilization", "result": "remarkably improved"}, {"measurement": "number of blood cells pumped in one heartbeat", "setting": "100 μM, 48 h after fertilization, vs control, n=15", "result": "remarkable increase in the number of blood cells pumped in one heartbeat"}]}
